Measured values taken from patent US10647680B2, “Urea compound, preparation method therefor and medical use thereof” (Ancureall Pharmaceutical (Shanghai) Co., Ltd., priority 2016, dated 2020).

Tests used:
Assay type in all cases: cell-based
Calu-3 (HER2/ErbB2 amp) = experiment: In vitro growth inhibition (GI50), Calu-3; conditions: Homo sapiens
Text: (§1) Tumor cell line is an effective cell model for studying the inhibition of tumor cell growth or proliferation in vitro. In the present invention, a representative tumor cell line was selected to determine the cell growth inhibition activity of the present compound. All cell lines used were from ATCC, DSMZ, and the Cell Bank of the Chinese Academy of Sciences. Cell culture conditions and methods were in accordance with the requirements of each cell line. Cells were subcultured in vitro for no more than 3 passages each time, and as required, single-clone purification and identification of cell lines could be carried out.
(§2) The cell culture media used were RPMI1640 (Gibco), MEM (Gibco), McCOY'S5A (Gibco), and IMDM (Gibco). The complete medium was prepared by supplement with 5˜20% fetal calf serum (Gibco), 1% double-antibiotics (10000 units/mL penicillin and 10000 units/mL), 2 mM glutamine or 1 mM sodium pyruvate, respectively.
(§3) Human gastric cancer cell line NCI-N87 (HER2/ErbB2 amp, ATCC), human breast cancer cell line HCC1954 (HER2/ErbB2 amp, ATCC) and ZR-75-30 (HER2/ErbB2 amp, ATCC), human adenocarcinoma cell line AU565 (HER2/ErbB2 amp, ATCC), human lung squamous cell carcinoma cell line NCI-H2170 (HER2/ErbB2 amp, ATCC), human bronchioalveolar adenocarcinoma cell line NCI-H1781 (HER2/ErbB2 Ins G776V,C mutant type, ATCC) were cultured with a 1×RPMI1640 complete medium (10% FBS), respectively. Human lung adenocarcinoma cell line Calu-3 (HER2/ErbB2 amp, ATCC) was cultured with 1×MEM, 10% FBS, 1% double antibody, 1% NEAA (Gibco), 2 mM glutamine and 1 mM sodium pyruvate. The human breast cancer cell line SK-BR-3 (HER2/ErbB2 amp, ATCC) was cultured with a McCOY'S5A complete medium (10% FBS).
(§4) Adherent cells were digested with 0.25% pancreatin-EDTA (Gibco). The suspension cells were collected by centrifugation. The supernatant was discarded and the cell pellet was resuspended and counted. Different cell concentrations (5˜10×10^4 cells/mL) were prepared according to the growth cycle of each cell line and then seeded on a 96-well plate (Corning), 100 μL/well. The cells were incubated overnight at 37° C., 5% CO2. The compounds were added to the cells on the second day with 2 wells in parallel. The final concentration of organic solvent shall not exceed 1%. The cells were continually incubated for 3 to 5 days, and then subjected to MTT assay.
(§5) The compound of the present invention and the control compound were dissolved in DMSO (Sigma) respectively, with the purity of more than 98%. The compound was stored in a concentration of 10 mM at −20° C. and diluted to 2- or 10-fold series prior to use.
(§6) Dojindo CCK8 reagent kit was used as MTT assay. THERMO […] FC meter was used as microplate reader.
(§7) For adherent cells, culture medium was removed and immediately replaced with the fresh prepared medium which contains 10% CCK8 reagent (100 μL/well). For the suspension cells, CCK8 was directly added to 10% of the final concentration. The cells were continually incubated for 1˜4 h. When a dark yellow color could be observed in the solvent control wells, the absorbance value at OD450 nm was measured and the cell growth rate was calculated according to the following formula: Cell Growth Rate (%)=100*(T−T0)/(C−T0) T=optical density of drug treatment cell well—optical density of blank control well; T0=optical density of cell well before drug treatment—optical density of blank control well; C=optical density of cell well of solvent control group—optical density of blank control well. The concentration value of 50% inhibition of cell growth (GI50) was calculated according to the drug concentration and cell growth rate curve. The experiment was independently repeated 1˜3 times, and subject to biological statistical analysis. 4. Experimental Results
(§8) Tumor cell growth inhibition test was performed by selecting representative compounds (compounds 4, 11, 12, 16, 27, 68, 71, 77, 79, 89 and 116 of the present invention). […]

[1] = tested on: HCC827 (EGFR exon19 E746-A750 deletion); experiment: In vitro growth inhibition (GI50), HCC827; conditions: Homo sapiens; HCC827, EGFR DelE746-A750
Text: as §1, §2
Human epidermal cancer cell line A431 (EGFR WT, amplification and high expression, from Shanghai Cell Bank of Chinese Academy of Sciences and ATCC), human lung cancer cell line NCI-H292 (EGFR WT, purchased from Shanghai Cell Bank of Chinese Academy of Sciences), NSCLC cell lines PC-9 and HCC827 (EGFR exon19 E746-A750 deletion, two cell lines are sensitive to the first-generation EGFR PTK inhibitor), NSCLC cell line NCI-H1975 (EGFR L858R/T790M and the first-generation EGFR inhibitor resistance, ATCC) were cultured with 1×RPMI1640 complete medium (supplement with 10% FBS), respectively.
as §4, §5, §6, §7
Tumor cell growth inhibition test was performed by selecting representative compounds (compounds 4, 11, 12, 16, 27, 68, 71, 77, 79, 89 and 116 of the present invention). The initial concentration of the compound was 5,000 nM, then it was serially diluted by 2-fold or 10-fold to 0.01 nM. The GI50 value of each test compound was calculated according to the GI50 assay and calculation method. […]

[2] = tested on: NCI-H2228 (expressing EML4-ALK fusion gene); experiment: In vitro growth inhibition (GI50), NCI-H2228; conditions: Homo sapiens
Text: as §1, §2
Human non-small cell lung cancer cell line NCI-H2228 (expressing EML4-ALK fusion gene, ATCC) and human anaplastic large cell lymphoma cell line Karpas-299 (expressing NPM-ALK fusion gene, ATCC) were cultured in complete medium comprising 1×RPMI1640 (10% FBS), respectively. Neuroblastoma cell line SH-SY5Y (expressing ALK F1174L mutant protein, Shanghai Cell Bank, Chinese Academy of Sciences) was cultured in MEM complete medium (1×MEM, 10% FBS, 1% NEAA, 1 mM sodium pyruvate).
as §4, §5, §6, §7
Tumor cell growth inhibition test was performed by selecting representative compounds (compounds 4, 11, 12, 16, 27, 68, 71, 77, 79, 89 and 116 of the present invention). The initial concentration of the compound was 5,000 nM, then it was serially diluted by 2-fold or 10-fold to 0.01 nM. The GI50 value of each test compound was calculated according to the GI50 assay and calculation method. The experiments were repeated 1 to 3 times, and data were subjected to biological statistical analysis.

HCC1954 (HER2/ErbB2 amp) = experiment: In vitro growth inhibition (GI50), HCC1954; conditions: Homo sapiens
Text: as §1, §2, §3, §4, §5, §6, §7, §8

| GI50 (Calu-3 (HER2/ErbB2 amp)) | GI50 [1] | GI50 [2] | GI50 (HCC1954 (HER2/ErbB2 amp)) | SMILES |
| --- | --- | --- | --- | --- |
| > 2.5 µM | > 2.5 µM | > 2.5 µM | > 2.5 µM | CC(C)(C)c1cc(NC(=O)Nc2ccc(-n3cnc4cc(OCCO)ccc43)cc2)[nH]n1 [Compound 79, 1-(5-tert-butyl-2H-pyrazol-3-yl)-3-{4-[5-(2-hydroxy-ethoxyl)-benzimidazol-1-yl]-phenyl]urea] |
| > 2.5 µM | > 2.5 µM | > 2.5 µM | > 2.5 µM | CC(C)(C)c1cc(NC(=O)Nc2ccc(-n3cnc4cc(OCCN5CCOCC5)ccc43)cc2)[nH]n1 [Compound 89, 1-(5-tert-butyl-2H-pyrazol-3-yl)-3-{4-[5-(2-morpholin-4-yl-ethoxyl)-benzimidazol-1-yl]-phenyl}-urea] |
| > 2.5 µM | > 2.5 µM | > 2.5 µM | > 2.5 µM | CC(C)(C)c1cc(NC(=O)Nc2ccc(-n3cnc4cc(O)ccc43)cc2)no1 [Compound 4, 1-(5-tert-butyl-isoxazol-3-yl)-3-[4-(5-hydroxy-benzimidazol-1-yl)-phenyl]-urea] |
| > 2.5 µM | > 2.5 µM | > 2.5 µM | > 2.5 µM | CC(C)(C)c1cc(NC(=O)Nc2ccc(-n3cnc4ccccc43)cc2)[nH]n1 [Compound 68, 1-(4-benzimidazol-1-yl-phenyl)-3-(5-tert-butyl-2H-pyrazol-3-yl)-urea] |
| > 2.5 µM | > 2.5 µM | > 2.5 µM | > 2.5 µM | COc1ccc2c(c1)ncn2-c1ccc(NC(=O)Nc2cc(C(C)(C)C)n[nH]2)cc1 [Compound 71, 1-(5-tert-butyl-2H-pyrazol-3-yl)-3-[4-(5-methoxyl-benzimidazol-1-yl)-phenyl]-urea] |
| > 2.5 µM | > 2.5 µM | > 2.5 µM | > 2.5 µM | CC(C)(C)c1cc(NC(=O)Nc2ccc(-n3cnc4cc(OCCN5CCOCC5)ccc43)cc2)no1 [Compound 16, 1-(5-tert-butyl-isoxazol-3-yl)-3-{4-[5-(2-morpholin-4-yl-ethoxyl)-benzimidazol-1-yl]-phenyl}-urea] |
| > 2.5 µM | > 2.5 µM | > 2.5 µM | > 2.5 µM | CC(C)(C)c1cc(N)n(C(=O)Nc2ccc(-n3cnc4ccccc43)cc2)n1 [Compound 116, 5-amino-3-tert-butyl-pyrazol-1-carboxylic acid (4-benzimidazol-1-yl-phenyl)-amide] |
| > 2.5 µM | > 2.5 µM | > 2.5 µM | > 2.5 µM | CC(C)(C)c1cc(NC(=O)Nc2ccc(-n3cnc4cc(OCCO)ccc43)cc2)no1 [Compound 11, 1-(5-tert-butyl-isoxazol-3-yl)-3-{4-[5-(2-hydroxy-ethoxyl)-benzimidazol-1-yl]-phenyl]-urea] |
| > 2.5 µM | > 2.5 µM | > 2.5 µM | > 2.5 µM | CC(C)(C)c1cc(NC(=O)Nc2ccc(-n3cnc4ccc(OCCN5CCOCC5)cc43)cc2)no1 [Compound 27, 1-(5-tert-butyl-isoxazol-3-yl)-3-{4-[6-(2morpholin-4-yl-ethoxyl)-benzimidazol-1-yl]-phenyl}-urea] |

| SMILES | GI50 (Calu-3 (HER2/ErbB2 amp)) | GI50 [1] | GI50 [2] | GI50 (HCC1954 (HER2/ErbB2 amp)) |
| --- | --- | --- | --- | --- |
| COCCOc1ccc2c(c1)ncn2-c1ccc(NC(=O)Nc2cc(C(C)(C)C)n[nH]2)cc1 [Compound 77, 1-(5-tert-butyl-2H-pyrazol-3-yl)-3-{4-[5-(2-methoxyl-ethoxyl)-benzimidazol-1-yl]-phenyl}-urea] | > 2.5 µM | > 2.5 µM | > 2.5 µM | > 2.5 µM |
